# How the values were obtained:
# Assay type in all cases: in vivo, mouse
# TA muscles = assay: [18F]-FDG PET imaging of treated TA muscles; details: after CL316,243-stimulated sympathetic activation; normalized to contralateral TA muscles; 2 months after treatment
# Text: Metabolically active BAT has been identified in adult human by [^18F]-fluorodeoxyglucose positron emission tomography ([^18F]-FDG PET), due to dramatic glucose uptake by this tissue after sympathetic activation (Nedergaard et al., 2007). To visualize active brown adipose tissue within muscle, Applicant performed [^18F]-FDG PET imaging on control- or miR-133 ASO treated mice (n=5 for 133 ASO treated mice, n=4 for control treated muscle; 2 months after treatment) after acute sympathetic activation by selective β3-adrenergic receptor agonist, CL316,243 (FIG. 5E). Applicant observed a dramatic increase of FDG uptake in miR-133 ASO treated TA muscles compared to contralateral TA muscles or TA muscles within control ASO treated mice. To rule out possible direct and indirect effects of CL316,243 on glucose/FDG uptake by skeletal muscle cells, Applicant normalized FDG activities derived from ROIs of treated TA muscles to those of contralateral TA muscles (FIG. 5F). […] Such a drastic increase was not observed without the sympathetic activation preceding anesthesia (baseline).
# Mouse PET imaging was performed with an Inveon PET scanner (Siemens Preclinical Solutions, Knoxyille, Tenn., USA). Control- or miR-133 ASO treated C57BL/6 male mice fed with regular diet were anesthetized under 2% isoflurane. […]
# [1] = system: epididymal white fat depots and liver; assay: H/E staining of fat depots and liver; details: mice fed the HFD
# Text: This discrepancy may be related to the abnormally low respiratory exchange ratio (˜0.76) in the control mice fed with HFD (FIG. 7D), which indicates an increased proportion of lipid oxidation in the control mice. […] In addition, miR-133 ASO treatment also led to much improved glucose tolerance in both diet groups (FIGS. 6E & 7F).
# Ucp1 = assay: UCP1 immunoblot in inguinal and epididymal white adipose tissues
# Procedure: Normalized UCP1 levels were calculated based on the densitometry analysis of the UCP1 immunoblot and the α-Tubulin immunoblot. The interscapular brown adipose tissue (iBAT) were included as a control. Asterisk denotes the loading of the iBAT lanes on the UCP1 immunoblot was 1/100 of other lanes to avoid overloading. (B) Immunohistochemistry (IHC) of UCP1 protein reveal miR-133 antagonism induced beige adipocytes within inguinal and epididymal white adipose tissues. […] Error bars: S.E.M., asterisk: significant pair-wise comparison by t-test, *: p≦0.05, **: p≦0.01, ***: p≦0.001.
# The following antibodies and dilutions were used: anti-Prdm16 antibody (generated in Dr. Patrick Seale's laboratory), 1:5,000 dilution; anti-Perilipin A antibody (Vala Sciences), 1:5,000 dilution; anti-Ucp1 antibody (Ab10983, Abeam), 1:1,000 dilution (FIGS. 4B, 5A, 7A); anti-Ucp1 antibody (Calbiochem), 1:1,000 dilution (FIG. 8C); anti-Ucp3 antibody (Ab3477, Abeam), 1:1,000 dilution; anti-Pgc1α antibody (Abeam), 1:1,000 dilution; anti-pan myosin heavy chain (MyHC) antibody (Developmental Studies Hybridoma Bank), 1:500; anti-DsRed (tdTomato) antibody (Ablab), 1:500; anti-α-Tubulin antibody (Sigma-Aldrich), 1:10,000 dilution.
substance,measurement,setting,value
*mA*mUmAmGmCmUmGmGmUmUmGmAmAmGmGmGmGmAmC*mC*mA*mA*mAChl [miR-133 ASO],increase of glucose/FDG uptake compared to control,TA muscles,1.3 fold
same,infiltrating inflammatory cells in the epididymal white fat depots,[1],reduced numbers
same,steatosis of the liver,[1],reduced steatosis
same,effect on UCP1 in white adipose tissues,Ucp1; C57BL/6 mice fed with a high fat diet (HFD),not present
same,UCP1 in inguinal and epididymal white adipose tissues,"Ucp1; C57BL/6 mice fed with a regular diet (RD), CTX",increase

# From US9018188B2, “MicroRNA inhibitors” (Ottawa Hospital Research Institute, priority 2011, dated 2015)
